In article PMC6915728 (Nature Communications, 2019):
Like-named read-outs stand apart in the source and are kept apart here.

What was measured:
[1] = tested on: E. coli; settings: previous laboratory evolution experiment; cited from earlier work
From the text: The results presented in this study may have important implications for the development of AMP-based therapies. Previous works reported several instances of cross-resistance interactions between membrane-targeting peptides (Supplementary Data 1), however, the potential for cross-resistance across AMPs with different modes of action has remained poorly understood. Specifically, while cross-resistance between host and therapeutic AMPs is certainly a realistic danger, not all AMPs are equally prone to cross-resistance. Given the immense diversity of AMPs with major differences in physicochemical ...

[2] = tested on: E. coli BW25113 overexpression strains (ASKA plasmids); experiment: Minimum inhibitory concentration (MIC), serial broth dilution, single-gene overexpression strains vs empty-vector control; assay type: cell-based, Escherichia coli; settings: broth dilution, MS medium, 100 µM IPTG, 30 °C, 20-24 h, OD600, 3 replicates
Description: Minimum inhibitory concentrations (MIC) were determined with a standard serial broth dilution technique with a minor modification. Specifically, instead of a two-fold dilution series, smaller AMP concentration steps were used (typically 1.2-fold) for two reasons. […] Second, gene overexpressions caused typically only small changes in the MICs of AMPs and therefore higher resolution was required. The protocol was as follows. From a stock solution of an AMP, 12-steps serial dilution was prepared in fresh MS medium in 96-well microtiter plates. Each AMP was represented in 11 different concentrations (3 wells per AMP concentration per strain). Three wells contained only medium to check the growth in the absence of AMP. After overnight growth in MS medium supplemented with chloramphenicol, bacterial strains were diluted 20-fold into fresh MS medium and grown until the cell density reached OD600 ~1. Cells were induced by 100 µM of IPTG and incubated for 1 h at 30 °C with continuous shaking at 300 rpm. Following incubation, approximately half-million cells were inoculated into the wells of the 96-well microtiter plate with a 96‐pin replicator. We used three independent replicates for each strain and the corresponding control. Two rows in the 96-well plate contained only MS medium in order to obtain the background OD value of the medium. Plates were incubated at 30 °C with continuous shaking at 300 rpm. After 20–24 h of incubation, OD600 values were measured in a microplate reader (Biotek Synergy 2).

[3] = tested on: AMP-evolved E. coli lines; settings: ref Spohn et al 2019, cited from earlier work
From the text: Supplement 41467_2019_13618_MOESM13_ESM.xlsx, sheet "Figure 6 and S15" | column: A comprehensive dataset of antimicrobial susceptibility of AMP-adapted lines to antimicrobial peptides (AMPs).

## FLGKVFKLASKVFKAVFGKV [R8, synthetic AMP (from linguistic model); cluster C1]
[1]
  Emergence of resistant lines in laboratory evolution: did not result in any significant resistant lines
[2]; overexpression strain mlaD, MIC of the overexpression strain / MIC of the control strain (wild-type carrying the empty plasmid)
  Relative MIC: 1
[2]; overexpression strain mzrA, MIC of overexpression strain / MIC of empty-plasmid control
  Relative MIC: 1.3
[2]; overexpression strain yhbJ, MIC of overexpression strain / MIC of empty-plasmid control
  Relative MIC: 1
[3]; AMP-adapted line BAC5_3
  Relative change in MIC (MIC of the AMP-adpated line / MIC of the ancestral strain): 1
[3]; AMP-adapted line BAC5_5
  Relative change in MIC (MIC of the AMP-adpated line / MIC of the ancestral strain): 1
[3]; AMP-adapted line BAC5_7
  Relative change in MIC (MIC of the AMP-adpated line / MIC of the ancestral strain): 1.1
[3]; AMP-adapted line BAC5_10
  Relative change in MIC (MIC of the AMP-adpated line / MIC of the ancestral strain): 1.1
[3]; AMP-adapted line CAP18_2
  Relative change in MIC (MIC of the AMP-adpated line / MIC of the ancestral strain): 1.2
[3]; AMP-adapted line CAP18_5
  Relative change in MIC (MIC of the AMP-adpated line / MIC of the ancestral strain): 1.1
[3]; AMP-adapted line CAP18_6
  Relative change in MIC (MIC of the AMP-adpated line / MIC of the ancestral strain): 1
[3]; AMP-adapted line CAP18_8
  Relative change in MIC (MIC of the AMP-adpated line / MIC of the ancestral strain): 1.1
[3]; AMP-adapted line CAP18_10
  Relative change in MIC (MIC of the AMP-adpated line / MIC of the ancestral strain): 1.2
[3]; AMP-adapted line HBD3_3
  Relative change in MIC (MIC of the AMP-adpated line / MIC of the ancestral strain): 1
[3]; AMP-adapted line HBD3_6
  Relative change in MIC (MIC of the AMP-adpated line / MIC of the ancestral strain): 1.2
[3]; AMP-adapted line HBD3_8
  Relative change in MIC (MIC of the AMP-adpated line / MIC of the ancestral strain): 1
[3]; AMP-adapted line HBD3_10
  Relative change in MIC (MIC of the AMP-adpated line / MIC of the ancestral strain): 1
[3]; AMP-adapted line LL37_1
  Relative change in MIC (MIC of the AMP-adpated line / MIC of the ancestral strain): 1.2
[3]; AMP-adapted line LL37_3
  Relative change in MIC (MIC of the AMP-adpated line / MIC of the ancestral strain): 1.2
[3]; AMP-adapted line LL37_6
  Relative change in MIC (MIC of the AMP-adpated line / MIC of the ancestral strain): 1
[3]; AMP-adapted line LL37_7
  Relative change in MIC (MIC of the AMP-adpated line / MIC of the ancestral strain): 1.1
[3]; AMP-adapted line LL37_10
  Relative change in MIC (MIC of the AMP-adpated line / MIC of the ancestral strain): 1.2
[3]; AMP-adapted line PEX_1
  Relative change in MIC (MIC of the AMP-adpated line / MIC of the ancestral strain): 1.1
[3]; AMP-adapted line PEX_4
  Relative change in MIC (MIC of the AMP-adpated line / MIC of the ancestral strain): 1.2
[3]; AMP-adapted line PEX_5
  Relative change in MIC (MIC of the AMP-adpated line / MIC of the ancestral strain): 1.1
[3]; AMP-adapted line PEX_6
  Relative change in MIC (MIC of the AMP-adpated line / MIC of the ancestral strain): 1
[3]; AMP-adapted line PEX_7
  Relative change in MIC (MIC of the AMP-adpated line / MIC of the ancestral strain): 1.2
[3]; AMP-adapted line PR39_1
  Relative change in MIC (MIC of the AMP-adpated line / MIC of the ancestral strain): 1.1
[3]; AMP-adapted line PR39_2
  Relative change in MIC (MIC of the AMP-adpated line / MIC of the ancestral strain): 1
[3]; AMP-adapted line PR39_5
  Relative change in MIC (MIC of the AMP-adpated line / MIC of the ancestral strain): 1
[3]; AMP-adapted line PR39_7
  Relative change in MIC (MIC of the AMP-adpated line / MIC of the ancestral strain): 1
[3]; AMP-adapted line PR39_10
  Relative change in MIC (MIC of the AMP-adpated line / MIC of the ancestral strain): 1
[3]; AMP-adapted line PROA_2
  Relative change in MIC (MIC of the AMP-adpated line / MIC of the ancestral strain): 1
[3]; AMP-adapted line PROA_3
  Relative change in MIC (MIC of the AMP-adpated line / MIC of the ancestral strain): 1
[3]; AMP-adapted line PROA_7
  Relative change in MIC (MIC of the AMP-adpated line / MIC of the ancestral strain): 1
[3]; AMP-adapted line PROA_8
  Relative change in MIC (MIC of the AMP-adpated line / MIC of the ancestral strain): 1
[3]; AMP-adapted line PROA_9
  Relative change in MIC (MIC of the AMP-adpated line / MIC of the ancestral strain): 1
[3]; AMP-adapted line PXB_2
  Relative change in MIC (MIC of the AMP-adpated line / MIC of the ancestral strain): 1
[3]; AMP-adapted line PXB_5
  Relative change in MIC (MIC of the AMP-adpated line / MIC of the ancestral strain): 1.7
[3]; AMP-adapted line PXB_6
  Relative change in MIC (MIC of the AMP-adpated line / MIC of the ancestral strain): 1.9
[3]; AMP-adapted line PXB_8
  Relative change in MIC (MIC of the AMP-adpated line / MIC of the ancestral strain): 1.9
[3]; AMP-adapted line PXB_10
  Relative change in MIC (MIC of the AMP-adpated line / MIC of the ancestral strain): 1.2
